From patent publication US20250230193A1, “CYCLIC COMPOUND HAVING SELECTIVE KRAS INHIBITORY EFFECT ON HRAS AND NRAS” (CHUGAI SEIYAKU KABUSHIKI KAISHA, priority 2022, published 2025)

Legend:
[1] = target: GDP-bound NRAS wild-type protein (Homo sapiens, UniProt P01111); assay: Binding to NRAS by surface plasmon resonance (SPR), Single Cycle Kinetics; settings: SPR; KD ratio class
[2] = target: GDP-bound HRAS wild-type protein (Homo sapiens, UniProt P01112); assay: Binding to HRAS by surface plasmon resonance (SPR), Single Cycle Kinetics; settings: SPR; KD ratio class
Chain of GDP-bound HRAS wild-type protein (P01112 whole entry): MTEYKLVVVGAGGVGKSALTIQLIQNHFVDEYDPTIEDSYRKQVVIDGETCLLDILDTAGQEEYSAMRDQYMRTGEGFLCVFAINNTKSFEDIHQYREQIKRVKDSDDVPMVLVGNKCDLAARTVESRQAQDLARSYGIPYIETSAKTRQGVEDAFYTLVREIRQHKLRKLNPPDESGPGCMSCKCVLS

[3] = test system: human lung cancer strain NCI-H441; assay: cells; settings: NCI-H441, 96 h, read-out: NCI-H441 IC50 (nM)

Chain of GDP-bound NRAS wild-type protein (P01111 whole entry): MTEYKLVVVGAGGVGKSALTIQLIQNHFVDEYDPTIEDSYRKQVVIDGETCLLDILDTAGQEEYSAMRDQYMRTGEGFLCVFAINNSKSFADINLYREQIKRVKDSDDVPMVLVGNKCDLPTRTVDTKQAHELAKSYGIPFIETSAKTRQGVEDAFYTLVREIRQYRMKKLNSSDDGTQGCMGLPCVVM

| IC50 [3] [nM] | SMILES | NRAS/KRAS (ratio of KD value for GDP-bound NRAS wild-type protein to KD value for KRAS) [1] | HRAS/KRAS (ratio of KD value for GDP-bound HRAS wild-type protein to KD value for KRAS) [2] |
| --- | --- | --- | --- |
| 301 | CCO[C@@H]1C[C@H]2C(=O)NC3(CCC3)C(=O)N(C)[C@@H](C(CC)CC)C(=O)N(C)[C@H](C(=O)N(C)C)CC(=O)N(C)[C@@H](C)C(=O)N[C@@H]([C@@H](C)CC)C(=O)N(C)CC(=O)N(C)[C@H]3C/C=C\CCN(C3=O)[C@@H](Cc3ccc(C(F)(F)F)cc3)C(=O)N(C)CC(=O)N[C@@H](CCc3ccc4sccc4c3)C(=O)N2C1 [PP1222] | A (a compound having 10 or more and less than 20 is denoted as A) | A (a compound having 10 or more and less than 20 is denoted as A) |
| 23 | CCO[C@@H]1C[C@H]2C(=O)NC3(CCC3)C(=O)N(C)[C@@H](C3CCCC3)C(=O)N(C)[C@H](C(=O)N3CCCC3)CC(=O)N(C)[C@@H](CC3CCCC3)C(=O)N[C@@H]([C@@H](C)CC)C(=O)N(C)CC(=O)N(C)[C@H]3C/C=C\CCN(C3=O)[C@@H](Cc3ccc(C)cc3)C(=O)N(C)CC(=O)N[C@@H](CCc3cc(F)c(C(F)(F)F)c(F)c3)C(=O)N2C1 [PP1412] | A (a compound having 10 or more and less than 20 is denoted as A) | A (a compound having 10 or more and less than 20 is denoted as A) |
| 8.7 | CCO[C@@H]1C[C@H]2C(=O)NC3(CCCC3)C(=O)N(C)[C@@H](C3CCCC3)C(=O)N(C)[C@H](C(=O)N3CCOCC3)CC(=O)N(C)[C@@H](CC)C(=O)N[C@@H]([C@@H](C)CC)C(=O)N(C)CC(=O)N(C)[C@H]3C[C@H](C)C(C)CN(C3=O)[C@@H](Cc3ccc(C(F)(F)F)cc3)C(=O)N(C)CC(=O)N[C@@H](CCc3cc(F)c(C(F)(F)F)c(F)c3)C(=O)N2C1 (stereo partly drawn) [PP1348] | B (a compound having 3 or more and less than 10 is denoted as B) | B (a compound having 3 or more and less than 10 is denoted as B) |
| 85.8 | CCO[C@@H]1C[C@H]2C(=O)NC3(CCC3)C(=O)N(C)[C@@H](C3CCCC3)C(=O)N(C)[C@H](C(=O)N(C)C)CC(=O)N(C)[C@@H](CC(C)C)C(=O)N[C@@H]([C@@H](C)CC)C(=O)N(C)CC(=O)N(C)[C@H]3C/C=C\CCN(C3=O)[C@@H](Cc3ccc(F)cc3C)C(=O)N(C)CC(=O)N[C@@H](CCc3ccc(Cl)c(Cl)c3)C(=O)N2C1 [PP1480] | A (a compound having 10 or more and less than 20 is denoted as A) | B (a compound having 3 or more and less than 10 is denoted as B) |
| 3.2 | CCO[C@@H]1C[C@H]2C(=O)NC3(CCCC3)C(=O)N(C)[C@@H](C3CCCC3)C(=O)N(C)[C@H](C(=O)N3CCOCC3)CC(=O)N(C)[C@@H](CC)C(=O)N[C@@H]([C@@H](C)CC)C(=O)N(C)CC(=O)N(C)[C@H]3C[C@@H](C)[C@@H](C)CN(C3=O)[C@@H](Cc3ccc(C(F)(F)F)cc3)C(=O)N(C)CC(=O)N[C@@H](CCc3ccc(C(F)(F)F)c(Cl)c3)C(=O)N2C1 [PP1359] | A (a compound having 10 or more and less than 20 is denoted as A) | B (a compound having 3 or more and less than 10 is denoted as B) |

Continued, compound first:

| SMILES | IC50 [3] [nM] | NRAS/KRAS (ratio of KD value for GDP-bound NRAS wild-type protein to KD value for KRAS) [1] | HRAS/KRAS (ratio of KD value for GDP-bound HRAS wild-type protein to KD value for KRAS) [2] |
| --- | --- | --- | --- |
| CC[C@H](C)[C@@H]1NC(=O)[C@H](CC)N(C)C(=O)C[C@@H](C(=O)N(C)C)N(C)C(=O)[C@H](C2CCCC2)N(C)C(=O)C2(CCCC2)NC(=O)[C@@H]2CCCN2C(=O)[C@H](CCc2cc(F)c(C(F)(F)F)c(F)c2)NC(=O)CN(C)C(=O)[C@H](Cc2ccc(C(F)(F)F)cc2)N2C[C@H](C)CC[C@@H](C2=O)N(C)C(=O)CN(C)C1=O [PP1382] | 15.8 | B (a compound having 3 or more and less than 10 is denoted as B) | B (a compound having 3 or more and less than 10 is denoted as B) |
| CCCOC[C@H]1C(=O)N[C@@H]([C@@H](C)CC)C(=O)N(C)CC(=O)N(C)[C@H]2C/C=C\CCN(C2=O)[C@@H](Cc2ccc(C)cc2)C(=O)N(C)CC(=O)N[C@@H](CCc2cc(F)c(C(F)(F)F)c(F)c2)C(=O)N2C[C@H](OCC)C[C@H]2C(=O)NC2(CC(C)(C)C2)C(=O)N(C)[C@@H](C2CCCC2)C(=O)N(C)[C@H](C(=O)N(CC)CC)CC(=O)N1C [PP1578] | 12.6 | A (a compound having 10 or more and less than 20 is denoted as A) | A (a compound having 10 or more and less than 20 is denoted as A) |
| CCO[C@@H]1C[C@H]2C(=O)NC3(CCC3)C(=O)N(C)[C@@H](C3CCCC3)C(=O)N(C)[C@H](C)CC(=O)N(C)[C@@H](CC3CCCC3)C(=O)N[C@@H]([C@@H](C)CC)C(=O)N(C)CC(=O)N(C)[C@H]3C/C=C\CCN(C3=O)[C@@H](Cc3ccc(C)cc3)C(=O)N(C)CC(=O)N[C@@H](CCc3cc(F)c(C(F)(F)F)c(F)c3)C(=O)N2C1 [PP1413] | 62.5 | B (a compound having 3 or more and less than 10 is denoted as B) | B (a compound having 3 or more and less than 10 is denoted as B) |
| CC[C@H](C)[C@@H]1NC(=O)[C@H](CC2CC2)N(C)C(=O)C[C@@H](C(=O)N(CC)CC)N(C)C(=O)[C@H](C2CCCC2)N(C)C(=O)C2(CC(C)(C)C2)NC(=O)[C@@H]2C[C@@H](F)CN2C(=O)[C@H](CCc2cc(F)c(C(F)(F)F)c(F)c2)NC(=O)CN(C)C(=O)[C@H](Cc2ccc(C(F)(F)F)cc2)N2CC/C=C\C[C@@H](C2=O)N(C)C(=O)CN(C)C1=O [PP1571] | 6.8 | A (a compound having 10 or more and less than 20 is denoted as A) | A (a compound having 10 or more and less than 20 is denoted as A) |
| CCO[C@@H]1C[C@H]2C(=O)NC3(CCC3)C(=O)N(C)[C@@H](C3CCCC3)C(=O)N(C)[C@H](C(=O)N3CCOCC3)CC(=O)N(C)[C@@H](CC)C(=O)N[C@@H]([C@@H](C)CC)C(=O)N3CC[C@H]3C(=O)N(C)[C@H]3C[C@@H](C)[C@@H](C)CN(C3=O)[C@@H](Cc3ccc(C(F)(F)F)cc3)C(=O)N(C)CC(=O)N[C@@H](CCc3cc(F)c(C(F)(F)F)c(F)c3)C(=O)N2C1 [PP1351] | 12.8 | A (a compound having 10 or more and less than 20 is denoted as A) | B (a compound having 3 or more and less than 10 is denoted as B) |
| CCO[C@@H]1C[C@H]2C(=O)NC3(CCC3)C(=O)N(C)[C@@H](C3CCCC3)C(=O)N(C)[C@H](C(=O)N(C)C)CC(=O)N(C)[C@@H](CC3CC3)C(=O)N[C@@H]([C@@H](C)CC)C(=O)N(C)CC(=O)N(C)[C@H]3C/C=C\CCN(C3=O)[C@@H](CC3CCCCC3)C(=O)N(C)CC(=O)N[C@@H](CCc3cc(F)c(C(F)(F)F)c(F)c3)C(=O)N2C1 [PP1446] | 32 | A (a compound having 10 or more and less than 20 is denoted as A) | A (a compound having 10 or more and less than 20 is denoted as A) |
| CCO[C@@H]1C[C@H]2C(=O)NC3(CCC3)C(=O)N(C)[C@@H](C(CC)CC)C(=O)N(C)[C@H](C(=O)N(C)C)CC(=O)N(C)[C@@H](CC(C)C)C(=O)N[C@@H]([C@@H](C)CC)C(=O)N(C)CC(=O)N(C)[C@H]3C/C=C\CCN(C3=O)[C@@H](Cc3ccc(C(F)(F)F)cc3)C(=O)N(C)CC(=O)N[C@@H](CCc3cc(F)c(Cl)c(F)c3)C(=O)N2C1 [PP1232] | 59.7 | A (a compound having 10 or more and less than 20 is denoted as A) | A (a compound having 10 or more and less than 20 is denoted as A) |
| CCCC[C@H]1C(=O)N[C@@H]([C@@H](C)CC)C(=O)N(C)CC(=O)N(C)[C@H]2C/C=C\CCN(C2=O)[C@@H](Cc2ccc(C(F)(F)F)cc2)C(=O)N(C)CC(=O)N[C@@H](CCc2cc(F)c(C(F)(F)F)c(F)c2)C(=O)N2C[C@H](OCC)C[C@H]2C(=O)NC2(CCC2)C(=O)N(C)[C@@H](C2CCCC2)C(=O)N(C)[C@H](C(=O)N(CC)CC)CC(=O)N1C [PP1576] | 7.6 | AA (a compound having 20 or more is denoted as AA) | A (a compound having 10 or more and less than 20 is denoted as A) |
| CCO[C@@H]1C[C@H]2C(=O)NC3(CC(C)(C)C3)C(=O)N(C)[C@@H](C3CCCC3)C(=O)N(C)[C@H](C(C)C)CC(=O)N(C)[C@@H](CC)C(=O)N[C@@H]([C@@H](C)CC)C(=O)N(C)CC(=O)N(C)[C@H]3C/C=C\CCN(C3=O)[C@@H](CC3CCCCC3)C(=O)N(C)CC(=O)N[C@@H](CCc3cc(F)c(C(F)(F)F)c(F)c3)C(=O)N2C1 [PP1603] | 132 | B (a compound having 3 or more and less than 10 is denoted as B) | B (a compound having 3 or more and less than 10 is denoted as B) |
| CCO[C@@H]1C[C@H]2C(=O)NC3(CCC3)C(=O)N(C)[C@@H](C(CC)CC)C(=O)N(C)[C@H](C)CC(=O)N(C)[C@@H](CC3CC3)C(=O)N[C@@H]([C@@H](C)CC)C(=O)N(C)CC(=O)N(C)[C@H]3C/C=C\CCN(C3=O)[C@@H](Cc3ccc(F)cc3)C(=O)N(C)CC(=O)N[C@@H](CCc3cc(F)c(C(F)(F)F)c(F)c3)C(=O)N2C1 [PP1521] | 173 | A (a compound having 10 or more and less than 20 is denoted as A) | B (a compound having 3 or more and less than 10 is denoted as B) |
